Active and inactive are the calls of the source.
What was measured:
[1] = test system: Mus musculus; test: Antioxidant activity in Swiss mouse model of LPS-induced inflammatory pain assessed as increase in GSH level in hind paw skin at mg/kg, po pretreated for 1 hr followed by LPS-stimulation and measured after 3 hrs by colorimetric based assay; type: functional, organism-based
[2] = test system: Mus musculus; test: Antiinflammatory activity against Swiss mouse model of LPS-induced inflammatory pain assessed as decrease in IL6 level in hind paw skin at 30 mg/kg, po pretreated for 1 hr followed by LPS-stimulation and measured after 3 hrs by ELISA; type: functional, organism-based
[3] = test system: Mus musculus; test: Antiinflammatory activity against Swiss mouse model of LPS-induced inflammatory pain assessed as decrease in IL6 level in peritoneal cavity at 30 mg/kg, po pretreated for 1 hr followed by LPS-stimulation and measured after 3 hrs by ELISA; type: functional, organism-based
[4] = test system: Mus musculus; test: (§1) Antiinflammatory activity against Swiss mouse model of LPS-induced peritonitis assessed as decrease in leukocyte recruitment in peritoneal cavity by measuring reduction in polymorphonuclear at 30 to 100 mg/kg, po pretreated for 1 hr followed by LPS-stimulation and measured after 3 hrs by light microscopic based Neubauer chamber cell counting method; type: functional, organism-based
[5] = test system: Mus musculus; test: (§2) Inhibition of NFkappaB in Swiss mouse peritoneal exudates model of LPS-induced inflammatory pain at 30 mg/kg, po pretreated for 1 hr followed by LPS-stimulation and measured after 3 hrs by Alexa Fluor 647 staining based immunofluorescence assay; type: organism-based
[6] = test system: Mus musculus; test: Analgesic activity in Swiss mouse model of LPS-induced inflammatory pain assessed as reduction in thermal hyperalgesia at 30 to 100 mg/kg, po pretreated for 1 hr followed by LPS-stimulation and measured after 1 to 5 hrs by hot plate technique; type: functional, organism-based
[7] = target: Transcription factor p65 (Mus musculus) (UniProt Q04207); test: Inhibition of NFkappaB in Swiss mouse peritoneal exudates model of LPS-induced inflammatory pain assessed as ratio of phosphorylated NFkappaB p65 at (Ser536 residue) to total NFkappaB p65 at 30 mg/kg, po pretreated for 1 hr followed by LPS-stimulation and measured after 3 hrs by ELISA; type: organism-based
[8] = test system: Mus musculus; test: Antiinflammatory activity against Swiss mouse model of LPS-induced peritonitis assessed as decrease in total ROS level at 30 mg/kg, po pretreated for 1 hr followed by LPS-stimulation and measured after 3 hrs by H2DCF-DA staining based confocal microscopic method; type: functional, organism-based
[9] = test system: Mus musculus; test: Antiinflammatory activity against Swiss mouse model of LPS-induced inflammatory pain assessed as decrease in TNFalpha level in hind paw skin at 30 mg/kg, po pretreated for 1 hr followed by LPS-stimulation and measured after 3 hrs by ELISA; type: functional, organism-based
[10] = test system: Mus musculus; test: as §1, with “total leukocytes” for “polymorphonuclear”; type: functional, organism-based
[11] = test system: Mus musculus; test: Analgesic activity in LPS-induced C57BL/6 mouse harboring LysM-eGFP assessed as decrease in neutrophil recruitment in hind paw skin by measuring fluorescence at 30 mg/kg, po pretreated for 1 hr followed by LPS-stimulation and measured after 5 hrs by confocal microscopic method; type: functional, organism-based
[12] = test system: Mus musculus; test: Antiinflammatory activity against Swiss mouse model of LPS-induced peritonitis assessed as decrease in superoxide anion production in peritoneal wash at 30 mg/kg, po pretreated for 1 hr followed by LPS-stimulation and measured after 3 hrs by NBT based spectrophotometric assay; type: functional, organism-based
[13] = test system: Mus musculus; test: Antiinflammatory activity against Swiss mouse model of LPS-induced inflammatory pain assessed as decrease in TNFalpha level in peritoneal cavity at 30 mg/kg, po pretreated for 1 hr followed by LPS-stimulation and measured after 3 hrs by ELISA; type: functional, organism-based
[14] = test system: Mus musculus; test: as §1, with “mononuclear cells” for “polymorphonuclear”; type: functional, organism-based
[15] = test system: Mus musculus; test: Analgesic activity in LPS-induced Swiss mouse assessed as increase in right/left paw ratio at 30 mg/kg, po pretreated for 1 hr followed by LPS-stimulation and measured after 1 to 5 hrs by static weight bearing assay; type: functional, organism-based
[16] = test system: Mus musculus; test: Antiinflammatory activity against Swiss mouse model of LPS-induced peritonitis assessed as decrease in NBT-positive leukocytes in peritoneal exudate at 30 mg/kg, po pretreated for 1 hr followed by LPS-stimulation and measured after 3 hrs by light microscopic based cell counting method; type: functional, organism-based
[17] = target: Transcription factor p65 (Mus musculus) (UniProt Q04207); test: as §2, with “pain assessed as reduction area of colocalization between phosphorylated NFkappaB p65 and DAPI” for “pain”; type: organism-based
[18] = test system: Mus musculus; test: Antioxidant activity in Swiss mouse model of LPS-induced inflammatory pain assessed as ABTS radical scavenging activity in hind paw skin at mg/kg, po pretreated for 1 hr followed by LPS-stimulation and measured after 3 hrs by colorimetric based assay; type: functional, organism-based
[19] = test system: Mus musculus; test: Antioxidant activity in Swiss mouse model of LPS-induced inflammatory pain assessed as reduction in lipid peroxidation in hind paw skin at mg/kg, po pretreated for 1 hr followed by LPS-stimulation and measured after 3 hrs by colorimetric based TBARS assay; type: functional, organism-based
[20] = test system: Mus musculus; test: Analgesic activity in LPS-induced Swiss mouse assessed as decrease in neutrophil recruitment in hind paw skin by measuring MPO activity at 10 to 100 mg/kg, po pretreated for 1 hr followed by LPS-stimulation and measured after 5 hrs by colorimetric assay; type: functional, organism-based
[21] = test system: Mus musculus; test: Antioxidant activity in Swiss mouse model of LPS-induced inflammatory pain assessed as decrease in superoxide production in hind paw skin at mg/kg, po pretreated for 1 hr followed by LPS-stimulation and measured after 3 hrs by colorimetric based NBT assay; type: functional, organism-based
[22] = test system: Mus musculus; test: Antiinflammatory activity against Swiss mouse model of LPS-induced inflammatory pain assessed as decrease in IL1beta level in peritoneal cavity at 30 mg/kg, po pretreated for 1 hr followed by LPS-stimulation and measured after 3 hrs by ELISA; type: functional, organism-based
[23] = test system: Mus musculus; test: Antiinflammatory activity against Swiss mouse model of LPS-induced inflammatory pain assessed as decrease in IL1beta level in hind paw skin at 30 mg/kg, po pretreated for 1 hr followed by LPS-stimulation and measured after 3 hrs by ELISA; type: functional, organism-based
[24] = test system: Mus musculus; test: Antioxidant activity in Swiss mouse model of LPS-induced inflammatory pain assessed as total ferric ion reducing activity in hind paw skin at mg/kg, po pretreated for 1 hr followed by LPS-stimulation and measured after 3 hrs by colorimetric based FRAP assay; type: functional, organism-based
[25] = test system: Mus musculus; test: Analgesic activity in Swiss mouse model of LPS-induced inflammatory pain assessed as reduction in mechanical hyperalgesia at 30 to 100 mg/kg, po pretreated for 1 hr followed by LPS-stimulation and measured after 1 to 5 hrs by Von Frey test; type: functional, organism-based

Sequence of Transcription factor p65 (Mus musculus) (Q04207 whole entry): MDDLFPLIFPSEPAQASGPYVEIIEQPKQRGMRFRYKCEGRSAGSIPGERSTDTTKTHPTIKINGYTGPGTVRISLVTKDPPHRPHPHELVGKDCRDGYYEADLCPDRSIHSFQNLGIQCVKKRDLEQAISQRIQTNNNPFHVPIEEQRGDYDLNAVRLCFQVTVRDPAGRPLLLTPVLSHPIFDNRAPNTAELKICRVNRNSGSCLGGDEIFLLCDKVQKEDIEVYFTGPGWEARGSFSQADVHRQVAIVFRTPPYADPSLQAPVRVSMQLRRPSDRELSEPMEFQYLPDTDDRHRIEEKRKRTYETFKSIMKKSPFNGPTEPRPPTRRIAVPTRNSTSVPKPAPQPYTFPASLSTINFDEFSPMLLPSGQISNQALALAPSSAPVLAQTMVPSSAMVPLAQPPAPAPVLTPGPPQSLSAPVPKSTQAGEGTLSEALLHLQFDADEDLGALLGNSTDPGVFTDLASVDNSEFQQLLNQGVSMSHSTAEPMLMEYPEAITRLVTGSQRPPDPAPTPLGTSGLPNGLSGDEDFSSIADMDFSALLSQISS

COc1ccc(-c2cc(=O)c3c(O)cc(O[C@@H]4O[C@H](CO[C@@H]5O[C@@H](C)[C@H](O)[C@@H](O)[C@H]5O)[C@@H](O)[C@H](O)[C@H]4O)cc3o2)cc1O
active: Activity [1] | Activity [2] | Activity [3] | Activity [4] | inhibition [5] | Activity [6] | inhibition [7] | Activity [8] | Activity [9] | Activity [10] | Activity [11] | Activity [12] | Activity [13] | Activity [14] | Activity [15] | Activity [16] | inhibition [17] | Activity [18] | Activity [19] | Activity [20] | Activity [21] | Activity [22] | Activity [23] | Activity [24] | Activity [25]
